In patent US10364245B2 (CHIESI FARMACEUTICI S.p.A., priority 2017, dated 2019):
Counter-ions that a name gives are not always drawn.

Legend:
[1] = molecular target: T1, p38 alpha (Homo sapiens, UniProt Q16539); assay: P38 alpha enzyme inhibition assay (Alphascreen kinase activity assay); format: biochemical; conditions: 100 pM p38 alpha, 2 hours preincubation at 25° C., 250 μM ATP, ATF-2 fusion protein; read-out: p38α inhibition
T1 construct: purchased Invitrogen PV3304
Summary of the method: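 100 pM p38 alpha preincubated 2 h at 25 °C with compound and 0.3 μg/ml ATF-2 fusion substrate (HEPES pH 7.5, MgCl2, 1% DMSO). Reaction started with 250 μM ATP, run 1 h at 25 °C, stopped with EDTA; phospho-ATF2 detected by AlphaScreen luminescence. IC50 from concentration-response curves.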

[2] = test system: Peripheral Blood Mononuclear Cells (PBMCs), TNFα release; assay: LPS-stimulated PBMC TNFα release assay; format: cell-based; conditions: human PBMC, LPS (10 ng/ml), 18 h, compound 1 h before LPS; read-out: LPS-stimulated PBMC TNFα release inhibition
Method: LPS-Stimulated PBMC TNFα Release Assay
Peripheral Blood Mononuclear Cells (PBMCs) were isolated from healthy human volunteer blood using a standard density gradient centrifugation technique. Citrated blood was placed onto Histopaque™ and centrifuged. The PBMCs were removed from the density gradient interface and washed in phosphate buffered saline (PBS). The PBMCs were suspended in RPMI 1640 medium (without serum), dispensed into a 96-well plate and incubated at 37° C. for 3 h in a humidified incubator. After incubation, the medium was replaced (with medium containing 1% foetal bovine serum) and the plate incubated at 37° C., for 1 h, in the presence of test compound or the appropriate vehicle. LPS (10 ng/ml), or an appropriate vehicle control, was then added to the cells and the plate returned to the incubator for 18 h. Cell-free supernatants were removed and assayed for TNFα levels using MSD plates on the Sector Imager 6000 (MesoScale).
A dose response curve to each test compound was performed and the effect of compound in each experiment was expressed as a percentage inhibition of the control TNFα release. Dose response curves were plotted and compound potency (IC50) was determined. Compounds were tested in at least three separate experiments.

T1 sequence (Q16539 whole entry, the tested form may be a part): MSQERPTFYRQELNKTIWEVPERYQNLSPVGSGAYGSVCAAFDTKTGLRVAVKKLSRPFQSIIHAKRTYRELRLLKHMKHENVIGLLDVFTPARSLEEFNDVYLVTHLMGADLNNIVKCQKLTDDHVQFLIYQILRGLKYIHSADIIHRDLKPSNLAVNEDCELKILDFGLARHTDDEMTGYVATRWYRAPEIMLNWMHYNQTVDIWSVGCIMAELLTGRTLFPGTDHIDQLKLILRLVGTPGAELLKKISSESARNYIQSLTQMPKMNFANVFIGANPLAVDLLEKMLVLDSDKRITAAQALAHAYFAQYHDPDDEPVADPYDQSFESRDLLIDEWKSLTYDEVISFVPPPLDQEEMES

## CC(C)(C)c1cc(NC(=O)N[C@H]2CC[C@@H](Oc3ccc4nnc(C(C)(C)C)n4c3)c3ccccc32)nc(C(=O)NCCO)n1 [Example 16, 4-(tert-Butyl)-6-(3-((1S,4R)-4-((3-(tert-butyl)-[1,2,4]triazolo[4,3-a]pyridin-6-yl)oxy)-1,2,3,4-tetrahydronaphthalen-1-yl)ureido)-N-(2-hydroxyethyl)pyrimidine-2-carboxamide]
[1]
  IC50: < 1 nM
[2]
  IC50: < 1 nM

## C[C@@H]1CCC[C@H](C)N1c1nnc2ccc(O[C@@H]3CC[C@H](NC(=O)Nc4cc(C(C)(C)C)nc(C(=O)NCCN5CCOCC5)n4)c4ccccc43)cn12 [Example 18, 4-(tert-Butyl)-6-(3-((1S,4R)-4-((3-((2R,6S)-2,6-dimethylpiperidin-1-yl)-[1,2,4]triazolo[4,3-a]pyridin-6-yl)oxy)-1,2,3,4-tetrahydronaphthalen-1-yl)ureido)-N-(2-morpholinoethyl)pyrimidine-2-carboxamide]
[1]
  IC50: < 1 nM
[2]
  IC50: 1 to 5 nM

## C[C@@H]1CCC[C@H](C)N1c1nnc2ccc(O[C@@H]3CC[C@H](NC(=O)Nc4cc(C(C)(C)C)nc(C(=O)NCCO)n4)c4ccccc43)cn12 [Example 19, 4-(tert-Butyl)-6-(3-((1S,4R)-4-((3-((2R,6S)-2,6-dimethylpiperidin-1-yl)-[1,2,4]triazolo[4,3-a]pyridin-6-yl)oxy)-1,2,3,4-tetrahydronaphthalen-1-yl)ureido)-N-(2-hydroxyethyl)pyrimidine-2-carboxamide]
[1]
  IC50: < 1 nM
[2]
  IC50: < 1 nM

## C[C@@H]1CCC[C@H](C)N1c1nnc2ccc(O[C@@H]3CC[C@H](NC(=O)Nc4cc(C(C)(C)C)nc(C(=O)NCCN(C)C)n4)c4ccccc43)cn12 [Example 20, 4-(tert-Butyl)-N-(2-(dimethylamino)ethyl)-6-(3-((1S,4R)-4-((3-((2R,6S)-2,6-dimethylpiperidin-1-yl)-[1,2,4]triazolo[4,3-a]pyridin-6-yl)oxy)-1,2,3,4-tetrahydronaphthalen-1-yl)ureido)pyrimidine-2-carboxamide]
[1]
  IC50: < 1 nM
[2]
  IC50: 1 to 5 nM

## CC(C)(C)c1cc(NC(=O)N[C@H]2CC[C@@H](Oc3ccc4nnc(C(C)(C)C)n4c3)c3ccccc32)nc(CN2CCOCC2)n1 [Example 21, 1-(6-(tert-Butyl)-2-(morpholinomethyl)pyrimidin-4-yl)-3-((1S,4R)-4-((3-(tert-butyl)-[1,2,4]triazolo[4,3-a]pyridin-6-yl)oxy)-1,2,3,4-tetrahydronaphthalen-1-yl)urea]
[1]
  IC50: 1 to 10 nM
[2]
  IC50: > 5 nM

## CN1CCN(C(C)(C)c2nnc3ccc(O[C@@H]4CC[C@H](NC(=O)Nc5cc(C(C)(C)C)nc(CO)n5)c5ccccc54)cn23)CC1 [Example 23, 1-(6-(tert-Butyl)-2-(hydroxymethyl)pyrimidin-4-yl)-3-((1S,4R)-4-((3-(2-(4-methylpiperazin-1-yl)propan-2-yl)-[1,2,4]triazolo[4,3-a]pyridin-6-yl)oxy)-1,2,3,4-tetrahydronaphthalen-1-yl)urea]
[1]
  IC50: 1 to 10 nM
[2]
  IC50: > 5 nM

## CN(C)CC(=O)NCc1nc(NC(=O)N[C@H]2CC[C@@H](Oc3ccc4nnc(C(C)(C)C)n4c3)c3ccccc32)cc(C(C)(C)C)n1 [Example 24, N-((4-(tert-Butyl)-6-(3-((1S,4R)-4-((3-(tert-butyl)-[1,2,4]triazolo[4,3-a]pyridin-6-yl)oxy)-1,2,3,4-tetrahydronaphthalen-1-yl)ureido)pyrimidin-2-yl)methyl)-2-(dimethylamino)acetamide]
[1]
  IC50: < 1 nM
[2]
  IC50: > 5 nM

## CC(C)(C)c1cc(NC(=O)N[C@H]2CC[C@@H](Oc3ccc4nnc(C5(C)CCCC5)n4c3)c3ccccc32)nc(C(=O)NCCN2CCOCC2)n1 [Example 25, 4-(tert-Butyl)-6-(3-((1S,4R)-4-((3-(1-methylcyclopentyl)-[1,2,4]triazolo[4,3-a]pyridin-6-yl)oxy)-1,2,3,4-tetrahydronaphthalen-1-yl)ureido)-N-(2-morpholinoethyl)pyrimidine-2-carboxamide]
[1]
  IC50: < 1 nM
[2]
  IC50: < 1 nM

## CC(=O)OCc1nc(NC(=O)N[C@H]2CC[C@@H](Oc3ccc4nnc([C@]5(C)CCCN5C)n4c3)c3ccccc32)cc(C(C)(C)C)n1 [Example 26, (4-(tert-Butyl)-6-(3-((1S,4R)-4-((3-((S)-1,2-dimethylpyrrolidin-2-yl)-[1,2,4]triazolo[4,3-a]pyridin-6-yl)oxy)-1,2,3,4-tetrahydronaphthalen-1-yl)ureido)pyrimidin-2-yl)methyl acetate]
[1]
  IC50: 1 to 10 nM
[2]
  IC50: 1 to 5 nM

## CN1CCC[C@@]1(C)c1nnc2ccc(O[C@@H]3CC[C@H](NC(=O)Nc4cc(C(C)(C)C)nc(CO)n4)c4ccccc43)cn12 [Example 27, 1-(6-(tert-Butyl)-2-(hydroxymethyl)pyrimidin-4-yl)-3-((1S,4R)-4-((3-((S)-1,2-dimethylpyrrolidin-2-yl)-[1,2,4]triazolo[4,3-a]pyridin-6-yl)oxy)-1,2,3,4-tetrahydronaphthalen-1-yl)urea]
[1]
  IC50: < 1 nM
[2]
  IC50: < 1 nM

## CN(C)CCNC(=O)c1nc(NC(=O)N[C@H]2CC[C@@H](Oc3ccc4nnc([C@]5(C)CCCN5C)n4c3)c3ccccc32)cc(C(C)(C)C)n1 [Example 28, 4-(tert-Butyl)-N-(2-(dimethylamino)ethyl)-6-(3-((1S,4R)-4-((3-((S)-1,2-dimethylpyrrolidin-2-yl)-[1,2,4]triazolo[4,3-a]pyridin-6-yl)oxy)-1,2,3,4-tetrahydronaphthalen-1-yl)ureido)pyrimidine-2-carboxamide]
[1]
  IC50: < 1 nM
[2]
  IC50: 1 to 5 nM

## CN1CCC[C@@]1(C)c1nnc2ccc(O[C@@H]3CC[C@H](NC(=O)Nc4cc(C(C)(C)C)nc(C(=O)NCCO)n4)c4ccccc43)cn12 [Example 29, 4-(tert-Butyl)-6-(3-((1S,4R)-4-((3-((S)-1,2-dimethylpyrrolidin-2-yl)-[1,2,4]triazolo[4,3-a]pyridin-6-yl)oxy)-1,2,3,4-tetrahydronaphthalen-1-yl)ureido)-N-(2-hydroxyethyl)pyrimidine-2-carboxamide]
[1]
  IC50: < 1 nM
[2]
  IC50: < 1 nM

## CN1CCC[C@@]1(C)c1nnc2ccc(O[C@@H]3CC[C@H](NC(=O)Nc4cc(C(C)(C)C)nc(NS(C)(=O)=O)n4)c4ccccc43)cn12 [Example 30, N-(4-(tert-Butyl)-6-(3-((1S,4R)-4-((3-((S)-1,2-dimethylpyrrolidin-2-yl)-[1,2,4]triazolo[4,3-a]pyridin-6-yl)oxy)-1,2,3,4-tetrahydronaphthalen-1-yl)ureido)pyrimidin-2-yl)methanesulfonamide]
[1]
  IC50: 1 to 10 nM
[2]
  IC50: 1 to 5 nM

## CN(C)CCNC(=O)c1nc(NC(=O)N[C@H]2CC[C@@H](Oc3ccc4nnc(C5(C)CC5)n4c3)c3ccccc32)cc(C(C)(C)C)n1 [Example 32, 4-(tert-Butyl)-N-(2-(dimethylamino)ethyl)-6-(3-((1S,4R)-4-((3-(1-methylcyclopropyl)-[1,2,4]triazolo[4,3-a]pyridin-6-yl)oxy)-1,2,3,4-tetrahydronaphthalen-1-yl)ureido)pyrimidine-2-carboxamide]
[1]
  IC50: < 1 nM
[2]
  IC50: > 5 nM

## CN(C)CCNC(=O)c1nc(NC(=O)N[C@H]2CC[C@@H](Oc3ccc4nnc([C@]5(C)CCCN5)n4c3)c3ccccc32)cc(C(C)(C)C)n1 [Example 34, 4-(tert-Butyl)-N-(2-(dimethylamino)ethyl)-6-(3-((1S,4R)-4-((3-((S)-2-methylpyrrolidin-2-yl)-[1,2,4]triazolo[4,3-a]pyridin-6-yl)oxy)-1,2,3,4-tetrahydronaphthalen-1-yl)ureido)pyrimidine-2-carboxamide]
[1]
  IC50: 1 to 10 nM
[2]
  IC50: > 5 nM

## COc1ncc(C(C)(C)C)cc1NC(=O)N[C@H]1CC[C@@H](Oc2ccc3nnc([C@@H]4CCCN4C)n3c2)c2ccccc21 [Example 35, 1-(5-(tert-Butyl)-2-methoxypyridin-3-yl)-3-((1S,4R)-4-((3-((S)-1-methylpyrrolidin-2-yl)-[1,2,4]triazolo[4,3-a]pyridin-6-yl)oxy)-1,2,3,4-tetrahydronaphthalen-1-yl)urea hydrochloride Salt]
[1]
  IC50: < 1 nM
[2]
  IC50: < 1 nM

## CCOC(=O)c1nc(NC(=O)N[C@H]2CC[C@@H](Oc3ccc4nnc([C@]5(C)CCCN5C)n4c3)c3ccccc32)cc(C(C)(C)C)n1 [Example 36, Ethyl 4-(tert-butyl)-6-(3-((1S,4R)-4-((3-((S)-1,2-dimethylpyrrolidin-2-yl)-[1,2,4]triazolo[4,3-a]pyridin-6-yl)oxy)-1,2,3,4-tetrahydronaphthalen-1-yl)ureido)pyrimidine-2-carboxylate]
[1]
  IC50: 1 to 10 nM
[2]
  IC50: < 1 nM

## C[C@H]1CCCCN1c1nnc2ccc(O[C@@H]3CC[C@H](NC(=O)Nc4cc(C(C)(C)C)nc(C(=O)NCCN(C)C)n4)c4ccccc43)cn12 [Example 37, 4-(tert-Butyl)-N-(2-(dimethylamino)ethyl)-6-(3-((1S,4R)-4-((3-((S)-2-methylpiperidin-1-yl)-[1,2,4]triazolo[4,3-a]pyridin-6-yl)oxy)-1,2,3,4-tetrahydronaphthalen-1-yl)ureido)pyrimidine-2-carboxamide]
[1]
  IC50: < 1 nM
[2]
  IC50: > 5 nM
